Laboratory results published in publication PMC8222713, “Variation of Two S3b Residues in KV4.1–4.3 Channels Underlies Their Different Modulations by Spider Toxin κ-LhTx-1” (Frontiers in Pharmacology, 2021).
Where a SMILES comes first, the peptide text is derived from it. Bridges are numbered along the chain shown (N, C = ends).

Key:
KV3.3 channel (hKV3.3) = experiment: Whole-cell patch clamp selectivity, KV3.3; format: cell-based, human; conditions: KV3.3, 10 µM, n = 5
Experimental: The cDNA of hKV1.1, hKV1.3, rKV1.4, hKV1.5, rKV2.1, hKV3.1–3.4, mKV4.1, rKV4.2, and rKV4.3 were subcloned in the eukaryotic expression vector pCDNA3.1 or pCMV-blank. Channel mutants were made by a site-directed mutation method. Briefly, a pair of oppositely directed primers with 15 bp overlap at their 5′ ends and the designed mutation site were used to amplify the parental channel plasmid, then the PCR mix was treated with DpnI to remove the template. 10 μL digestion mix was directly used to transform 100 μL DH5α chemical competent cells. The correct mutation made by this procedure was finally confirmed by DNA sequencing. […] 4–6 h after transfection, cells were seeded onto poly-lysine (PLL) coated coverslips, and 24–36 h later, transfected cells were ready for patch-clamp analysis. […]
Whole-cell patch clamp recording was performed in an electrophysiology platform equipped with MultiClamp 700B amplifier and Axon Digidata 1550 AD/DA convertor (Axon Instruments, Irvine, CA, United States). […] The whole cell conductance (G) at each depolarizing voltage (V) was determined using the equation: G = I/(V−Vrev), where I and Vrev represents the current amplitude and the reversal potential, respectively. In the present study, Vrev for K^+ current is determined to be −85.61 mV using the Nernst equation. […] Gating currents of KV4.1–4.3 channels were measured as previously reported ([Tilley et al., 2019]). […]

[1] = system: KV4.2/T282P mutant (T280P in text); experiment: Whole-cell patch clamp, KV4.2/T282P (text: KV4.2/T280P) (with hKChIP1) in CHO-K1 cells; format: cell-based, rat
Experimental: (§1) The cDNA of hKV1.1, hKV1.3, rKV1.4, hKV1.5, rKV2.1, hKV3.1–3.4, mKV4.1, rKV4.2, and rKV4.3 were subcloned in the eukaryotic expression vector pCDNA3.1 or pCMV-blank. Channel mutants were made by a site-directed mutation method. Briefly, a pair of oppositely directed primers with 15 bp overlap at their 5′ ends and the designed mutation site were used to amplify the parental channel plasmid, then the PCR mix was treated with DpnI to remove the template. 10 μL digestion mix was directly used to transform 100 μL DH5α chemical competent cells. The correct mutation made by this procedure was finally confirmed by DNA sequencing. CHO-K1 cells (ATCC® CCL-61™) were grown in DMEM-F12 mixed medium (1:1) supplemented with 10% FBS and maintained in standard conditions (saturated humidity, 37°C, 5% CO2). Channel plasmid was co-transfected with pEGFP-N1 (encodes the green fluoresence protein) into CHO-K1 cells using lipofectamine 2000 following the manufacturer’s instructions. 4–6 h after transfection, cells were seeded onto poly-lysine (PLL) coated coverslips, and 24–36 h later, transfected cells were ready for patch-clamp analysis. It should be note that KV4.2 and its mutants were also co-expressed with hKChIP1 to promote their functional expressions.
Whole-cell patch clamp recording was performed in an electrophysiology platform equipped with MultiClamp 700B amplifier and Axon Digidata 1550 AD/DA convertor (Axon Instruments, Irvine, CA, United States). Data were acquired using the pClamp software (Axon Instruments, Irvine, CA, United States). All experiments were performed at room temperature. The bath solution contains (in mM): 140 NaCl, 5 KCl, 1 MgCl2, 2 CaCl2, 10 glucose, and 10 HEPES (pH = 7.3). The pipette solution contains (in mM): 140 KCl, 2.5 MgCl2, 11 EGTA, and 10 HEPES (pH = 7.3). Series resistance was kept below 10 MΩ and compensated to 80%. The concentration–response curves were fitted by a Hill logistic equation to estimate the potency (IC50) of the toxin. The whole cell conductance (G) at each depolarizing voltage (V) was determined using the equation: G = I/(V−Vrev), where I and Vrev represents the current amplitude and the reversal potential, respectively. In the present study, Vrev for K^+ current is determined to be −85.61 mV using the Nernst equation. G-V curve was obtained by plotting the normalized G as a function of V and fitted by the Boltzmann equation: y = 1/{1 + exp [(Va−V)/K]}, in which Va, V, and K represents half-maximum activation voltage, test voltage and slope factor, respectively. The steady-state fast inactivation of KV4 channels was measured using a classical two-pulses protocol: cell was held at −120 mV, and a train of conditional voltages (−120–40 mV, in 10 mV increment, 1,000 ms) were applied to induce channel inactivation, followed by a +60 mV test pulse (300 ms) to assess the proportion of non-inactivated channels; the sweep interval was set to 10 s. […] Gating currents of KV4.1–4.3 channels were measured as previously reported ([Tilley et al., 2019]). […]
(§2) Data were presented as MEAN ± SEM, n represents the number of separate experimental cells. Data were analyzed using the software Clampfit 10.5 (Axon Instruments, Irvine, CA, United States), Graphpad Prism 5.01 (GraphPad Software, La Jolla, CA, United States) and Excel 2010 (Microsoft Corporation, Redmond, WA, United States). […]

KV4.2 channel (rKV4.2) = molecular target: T1, KV4.2 channel (rKV4.2) (Rattus norvegicus, UniProt Q63881); experiment: Whole-cell patch clamp, KV4.2 (with hKChIP1) in CHO-K1 cells; format: cell-based
T1 construct: expressed in transfected cells; host or cells: CHO-K1 (transient, co-transfected with pEGFP-N1 and hKChIP1)
T1 sequence (Q63881 1-630): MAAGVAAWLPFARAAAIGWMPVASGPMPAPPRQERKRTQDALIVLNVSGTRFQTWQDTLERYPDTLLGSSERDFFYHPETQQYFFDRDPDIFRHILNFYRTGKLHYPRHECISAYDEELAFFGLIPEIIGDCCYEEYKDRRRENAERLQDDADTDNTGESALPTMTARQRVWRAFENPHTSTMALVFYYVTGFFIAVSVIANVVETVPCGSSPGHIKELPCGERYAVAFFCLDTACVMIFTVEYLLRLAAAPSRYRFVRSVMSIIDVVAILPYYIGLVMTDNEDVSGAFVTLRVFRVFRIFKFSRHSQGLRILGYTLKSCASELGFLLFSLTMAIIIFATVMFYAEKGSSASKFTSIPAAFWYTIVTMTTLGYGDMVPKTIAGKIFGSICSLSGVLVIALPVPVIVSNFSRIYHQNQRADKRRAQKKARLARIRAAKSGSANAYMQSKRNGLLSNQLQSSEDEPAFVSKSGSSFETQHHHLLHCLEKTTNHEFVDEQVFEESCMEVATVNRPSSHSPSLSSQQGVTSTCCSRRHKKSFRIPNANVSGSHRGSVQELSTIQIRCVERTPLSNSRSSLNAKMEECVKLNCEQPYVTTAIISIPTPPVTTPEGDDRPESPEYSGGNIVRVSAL
T1 sequence (Q9NZI2 1-227 partner): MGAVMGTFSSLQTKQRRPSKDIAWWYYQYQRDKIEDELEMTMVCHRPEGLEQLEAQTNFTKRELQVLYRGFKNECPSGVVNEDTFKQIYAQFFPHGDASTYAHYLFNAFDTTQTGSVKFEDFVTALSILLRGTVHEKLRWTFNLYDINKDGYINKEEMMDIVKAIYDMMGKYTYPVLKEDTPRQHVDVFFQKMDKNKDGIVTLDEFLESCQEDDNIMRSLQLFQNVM
Experimental: as §1
Whole-cell patch clamp recording was performed in an electrophysiology platform equipped with MultiClamp 700B amplifier and Axon Digidata 1550 AD/DA convertor (Axon Instruments, Irvine, CA, United States). Data were acquired using the pClamp software (Axon Instruments, Irvine, CA, United States). All experiments were performed at room temperature. The bath solution contains (in mM): 140 NaCl, 5 KCl, 1 MgCl2, 2 CaCl2, 10 glucose, and 10 HEPES (pH = 7.3). The pipette solution contains (in mM): 140 KCl, 2.5 MgCl2, 11 EGTA, and 10 HEPES (pH = 7.3). Series resistance was kept below 10 MΩ and compensated to 80%. The concentration–response curves were fitted by a Hill logistic equation to estimate the potency (IC50) of the toxin. The whole cell conductance (G) at each depolarizing voltage (V) was determined using the equation: G = I/(V−Vrev), where I and Vrev represents the current amplitude and the reversal potential, respectively. In the present study, Vrev for K^+ current is determined to be −85.61 mV using the Nernst equation. G-V curve was obtained by plotting the normalized G as a function of V and fitted by the Boltzmann equation: y = 1/{1 + exp [(Va−V)/K]}, in which Va, V, and K represents half-maximum activation voltage, test voltage and slope factor, respectively. The steady-state fast inactivation of KV4 channels was measured using a classical two-pulses protocol: cell was held at −120 mV, and a train of conditional voltages (−120–40 mV, in 10 mV increment, 1,000 ms) were applied to induce channel inactivation, followed by a +60 mV test pulse (300 ms) to assess the proportion of non-inactivated channels; the sweep interval was set to 10 s. Currents at the test pulse (I) were normalized to the maximum value (Imax) and plotted as a function of the conditional voltage (V), the curve was fitted by the Boltzmann equation: I/Imax = A + (1−A)/{1 + exp [(V−Vh)/K]}, where Vh is the half-maximum inactivation voltage, A represents the minimum channel availability, and K is the slope factor. Gating currents of KV4.1–4.3 channels were measured as previously reported ([Tilley et al., 2019]). Briefly, the ionic pore currents were abolished by replacing K^+ with NMDG^+ in the pipette solution, and 10 µM Cs^+ was present in the bath solution to occupy the selectivity filter of KV channels to prevent decay of the gating currents during recording.
as §2

[2] = 10 μM κ-LhTx-1, KV4.2/T282P, G-V, mean ± SEM, n = 5
[3] = 10 μM κ-LhTx-1, KV4.2/T282P, two-pulse protocol, mean ± SEM, n = 5
[4] = 10 μM κ-LhTx-1, KV4.2, G-V, mean ± SEM, n = 8
[5] = 10 μM κ-LhTx-1, KV4.2, two-pulse protocol, mean ± SEM, n = 6

Compound: CC[C@H](C)[C@@H]1NC(=O)[C@H](CCC(N)=O)NC(=O)[C@@H]2CSSC[C@@H]3NC(=O)[C@H](CC(C)C)NC(=O)[C@H](CC(N)=O)NC(=O)[C@H](CCSC)NC(=O)[C@H](Cc4c[nH]c5ccccc45)NC(=O)[C@H](CO)NC(=O)[C@H](C)NC(=O)[C@@H](NC(=O)[C@H](CCC(=O)O)NC(=O)[C@H](CCC(N)=O)NC(=O)[C@H](C)NC(=O)[C@H](CC(=O)O)NC(=O)[C@@H](N)CCC(=O)O)CSSC[C@H](NC(=O)[C@H](CSSC[C@@H](C(=O)N[C@@H](CCCCN)C(=O)N[C@@H](Cc4ccc(O)cc4)C(=O)N[C@@H](CCCCN)C(=O)N[C@@H](CC(C)C)C(N)=O)NC(=O)[C@H](Cc4c[nH]c5ccccc45)NC1=O)NC(=O)[C@H](CCCCN)NC(=O)[C@H](CCCCN)NC(=O)[C@H](CCC(=O)O)NC(=O)CNC3=O)C(=O)N[C@@H](CCC(=O)O)C(=O)NCC(=O)N[C@@H](Cc1ccc(O)cc1)C(=O)N[C@@H](C(C)C)C(=O)N2 [κ-LhTx-1] (H-EDAQECASWMNLCGEKKCCEGYVCQIWCKYKL-NH2; disulfide 6-19, 13-24, 18-28 (inferred); N-terminus and C-terminus assumed)
- effect on currents (KV3.3 channel (hKV3.3)): did not remarkably affect the currents
- Va (steady-state activation) [1, 2]: 16.93 ± 2.90 mV
- k, slope factor (steady-state activation) [1, 2]: 25.61 ± 0.68 mV
- Vh (steady-state inactivation) [1, 3]: -71.72 ± 3.71 mV
- k, slope factor (steady-state inactivation) [1, 3]: 5.86 ± 0.21 mV
- toxin inhibition ([1]; KV4.2/T280P, 10 μM, all voltages, n = 5–6): resistant to toxin inhibition at all voltages
- Va (steady-state activation) (KV4.2 channel (rKV4.2); [4]): 30.24 ± 1.82 mV
- k, slope factor (steady-state activation) (KV4.2 channel (rKV4.2); [4]): 21.99 ± 0.42 mV
- Vh (steady-state inactivation) (KV4.2 channel (rKV4.2); [5]): -69.67 ± 1.87 mV
- k, slope factor (steady-state inactivation) (KV4.2 channel (rKV4.2); [5]): 7.22 ± 0.26 mV
- reversibility of inhibition (KV4.2 channel (rKV4.2); KV4.2): in a reversible manner
- voltage-dependence of inhibition (KV4.2 channel (rKV4.2); KV4.2, 10 µM, inhibition ratio at each depolarizing voltage, n = 5–8): decreased quickly with the increment of the depolarizing voltage
- I-V relationship shift (KV4.2 channel (rKV4.2); KV4.2, 10 µM, n = 5–8): only a small shift
- current inhibition at Va (KV4.2 channel (rKV4.2); KV4.2 at Va depolarizing voltage): almost fully inhibited
- ∆Va (steady-state activation) (KV4.2 channel (rKV4.2); Va shift by 10 μM κ-LhTx-1 vs control, KV4.2, mean ± SEM): 39.52 ± 2.55 mV
